In ChEMBL document CHEMBL3132769, “Fragment growing to retain or alter the selectivity of anchored kinase hinge-binding fragments” (Medchemcomm, 2014) one finds inhibition data, which are given here for five molecules.

The target in assay [1] is T1, Aurora kinase A (Homo sapiens) (UniProt O14965).
T1 sequence (whole entry): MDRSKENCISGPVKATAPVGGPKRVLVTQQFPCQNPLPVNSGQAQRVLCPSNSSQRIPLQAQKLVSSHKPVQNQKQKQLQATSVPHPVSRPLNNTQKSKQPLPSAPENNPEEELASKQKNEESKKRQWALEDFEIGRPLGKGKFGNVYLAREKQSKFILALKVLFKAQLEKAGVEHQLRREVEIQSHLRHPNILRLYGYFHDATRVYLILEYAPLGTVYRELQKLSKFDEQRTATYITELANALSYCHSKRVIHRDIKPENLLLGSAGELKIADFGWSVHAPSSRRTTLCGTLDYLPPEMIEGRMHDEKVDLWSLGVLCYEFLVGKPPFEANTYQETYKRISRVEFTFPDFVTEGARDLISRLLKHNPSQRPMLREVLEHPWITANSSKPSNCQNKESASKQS
The assay can be described thus: Inhibition of human full length AurA expressed in baculovirus assessed as substrate phosphorylation using fluorescence-labelled peptides as substrate at 2 uM after 90 mins by microfluidic peptide phosphorylation assay.

For assay [2], the target named is Fibroblast growth factor receptor 4 (Homo sapiens) (UniProt P22455). The assay can be described thus: Inhibition of human FGFR4 catalytic domain expressed in baculovirus assessed as substrate phosphorylation using fluorescence-labelled peptides as substrate at 2 uM after 90 mins by microfluidic peptide phosphorylation assay.
Sequence of Fibroblast growth factor receptor 4 (Homo sapiens) (P22455 22-802 limits assumed): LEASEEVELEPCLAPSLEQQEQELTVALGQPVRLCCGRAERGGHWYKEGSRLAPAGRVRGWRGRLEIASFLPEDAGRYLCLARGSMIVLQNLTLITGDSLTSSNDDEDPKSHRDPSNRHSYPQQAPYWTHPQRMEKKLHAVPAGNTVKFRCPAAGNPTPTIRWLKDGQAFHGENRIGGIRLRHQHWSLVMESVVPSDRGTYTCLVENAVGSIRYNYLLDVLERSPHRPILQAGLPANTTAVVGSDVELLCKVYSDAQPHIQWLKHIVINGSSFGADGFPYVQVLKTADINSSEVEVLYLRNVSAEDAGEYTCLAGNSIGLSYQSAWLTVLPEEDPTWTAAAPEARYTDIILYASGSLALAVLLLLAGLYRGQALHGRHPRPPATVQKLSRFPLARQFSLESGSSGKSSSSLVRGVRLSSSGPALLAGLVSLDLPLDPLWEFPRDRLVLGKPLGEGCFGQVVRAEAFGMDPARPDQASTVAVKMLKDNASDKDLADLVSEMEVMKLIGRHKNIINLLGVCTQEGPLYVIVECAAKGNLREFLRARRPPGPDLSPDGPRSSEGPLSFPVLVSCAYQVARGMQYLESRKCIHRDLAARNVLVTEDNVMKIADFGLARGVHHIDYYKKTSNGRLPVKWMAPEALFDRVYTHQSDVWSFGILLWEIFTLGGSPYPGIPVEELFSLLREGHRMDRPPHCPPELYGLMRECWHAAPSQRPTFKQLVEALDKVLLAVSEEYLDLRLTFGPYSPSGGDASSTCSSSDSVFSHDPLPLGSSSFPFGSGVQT
Assay [3] deals with Rho-associated protein kinase 2 (Homo sapiens) (UniProt O75116). The assay can be described thus: Inhibition of human ROCK2 catalytic domain expressed in baculovirus assessed as substrate phosphorylation using fluorescence-labelled peptides as substrate at 2 uM after 90 mins by microfluidic peptide phosphorylation assay.
Sequence of Rho-associated protein kinase 2 (Homo sapiens) (O75116 whole entry, looked up, the tested form may be a part): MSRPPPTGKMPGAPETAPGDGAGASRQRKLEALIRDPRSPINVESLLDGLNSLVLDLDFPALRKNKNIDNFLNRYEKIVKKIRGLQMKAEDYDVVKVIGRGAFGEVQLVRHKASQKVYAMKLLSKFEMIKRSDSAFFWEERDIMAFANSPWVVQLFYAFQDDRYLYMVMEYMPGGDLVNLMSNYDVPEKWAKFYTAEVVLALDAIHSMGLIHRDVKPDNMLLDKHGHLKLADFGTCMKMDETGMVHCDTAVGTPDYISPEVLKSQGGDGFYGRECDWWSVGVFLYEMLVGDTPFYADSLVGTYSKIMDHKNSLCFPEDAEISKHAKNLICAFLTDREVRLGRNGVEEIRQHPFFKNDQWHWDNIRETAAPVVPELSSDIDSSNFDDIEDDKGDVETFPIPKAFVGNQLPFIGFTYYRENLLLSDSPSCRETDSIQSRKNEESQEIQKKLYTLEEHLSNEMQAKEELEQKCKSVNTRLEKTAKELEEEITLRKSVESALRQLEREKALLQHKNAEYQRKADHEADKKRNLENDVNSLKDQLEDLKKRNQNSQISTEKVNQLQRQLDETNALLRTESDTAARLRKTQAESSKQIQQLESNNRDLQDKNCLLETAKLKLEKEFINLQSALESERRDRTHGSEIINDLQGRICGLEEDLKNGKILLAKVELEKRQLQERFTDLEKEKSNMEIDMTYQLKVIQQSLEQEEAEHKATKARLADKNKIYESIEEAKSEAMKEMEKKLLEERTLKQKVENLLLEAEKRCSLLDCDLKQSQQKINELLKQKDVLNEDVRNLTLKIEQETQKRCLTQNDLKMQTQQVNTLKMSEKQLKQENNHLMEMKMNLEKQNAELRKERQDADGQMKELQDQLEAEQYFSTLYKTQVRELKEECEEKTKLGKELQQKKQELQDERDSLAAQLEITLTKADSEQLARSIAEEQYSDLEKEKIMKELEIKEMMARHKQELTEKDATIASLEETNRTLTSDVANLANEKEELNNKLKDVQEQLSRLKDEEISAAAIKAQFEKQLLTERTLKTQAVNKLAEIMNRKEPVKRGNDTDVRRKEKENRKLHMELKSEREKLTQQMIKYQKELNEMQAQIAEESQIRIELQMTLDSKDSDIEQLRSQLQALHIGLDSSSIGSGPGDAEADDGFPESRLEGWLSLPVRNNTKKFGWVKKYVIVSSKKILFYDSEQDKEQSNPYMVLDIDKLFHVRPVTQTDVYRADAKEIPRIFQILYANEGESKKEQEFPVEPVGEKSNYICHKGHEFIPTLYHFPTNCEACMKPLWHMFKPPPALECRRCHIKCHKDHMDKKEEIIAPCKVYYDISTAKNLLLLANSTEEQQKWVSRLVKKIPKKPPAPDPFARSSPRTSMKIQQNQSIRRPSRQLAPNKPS
Assay [4] deals with Calcium/calmodulin-dependent protein kinase type II subunit gamma (Homo sapiens) (UniProt Q13555). The following applies: 0.1 uM.
Sequence of Calcium/calmodulin-dependent protein kinase type II subunit gamma (Homo sapiens) (Q13555 whole entry): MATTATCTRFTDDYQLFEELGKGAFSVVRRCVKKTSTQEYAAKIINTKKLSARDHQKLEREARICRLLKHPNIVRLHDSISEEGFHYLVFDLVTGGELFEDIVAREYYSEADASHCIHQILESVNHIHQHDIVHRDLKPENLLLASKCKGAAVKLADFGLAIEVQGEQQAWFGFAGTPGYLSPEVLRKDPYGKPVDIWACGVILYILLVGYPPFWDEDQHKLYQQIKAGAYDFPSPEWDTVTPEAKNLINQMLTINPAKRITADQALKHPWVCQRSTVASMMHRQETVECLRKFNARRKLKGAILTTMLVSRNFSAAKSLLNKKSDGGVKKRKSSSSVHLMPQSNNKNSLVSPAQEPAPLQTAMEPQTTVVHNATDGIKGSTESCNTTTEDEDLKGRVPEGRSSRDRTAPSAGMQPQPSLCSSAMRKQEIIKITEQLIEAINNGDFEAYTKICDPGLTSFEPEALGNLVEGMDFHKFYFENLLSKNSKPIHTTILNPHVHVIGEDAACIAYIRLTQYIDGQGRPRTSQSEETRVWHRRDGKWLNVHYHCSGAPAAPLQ
Description: Inhibition of human CAMK2 gamma catalytic domain expressed in baculovirus assessed as substrate phosphorylation using fluorescence-labelled peptides as substrate at 0.1 uM after 90 mins by microfluidic peptide phosphorylation assay
For assay [5], the target named is T2, Mitogen-activated protein kinase 13 (Homo sapiens) (UniProt O15264).
T2 sequence (whole entry): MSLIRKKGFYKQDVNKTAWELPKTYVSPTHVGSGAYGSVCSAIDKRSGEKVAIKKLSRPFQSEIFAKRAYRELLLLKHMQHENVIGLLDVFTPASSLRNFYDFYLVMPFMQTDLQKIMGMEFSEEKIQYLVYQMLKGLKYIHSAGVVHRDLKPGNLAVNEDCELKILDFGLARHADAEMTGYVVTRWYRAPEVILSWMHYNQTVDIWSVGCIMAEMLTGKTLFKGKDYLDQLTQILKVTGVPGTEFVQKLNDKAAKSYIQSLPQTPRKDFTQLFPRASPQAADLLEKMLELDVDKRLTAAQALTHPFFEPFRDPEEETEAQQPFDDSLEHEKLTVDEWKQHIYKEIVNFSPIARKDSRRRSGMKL
The assay can be described thus: Inhibition of human full length p38 delta expressed in Escherichia coli cell assessed as substrate phosphorylation using fluorescence-labelled peptides as substrate at 0.06 uM after 90 mins by microfluidic peptide phosphorylation assay.

Assay [6] has as its target Mitogen-activated protein kinase kinase kinase kinase 4 (Homo sapiens) (UniProt O95819). The assay can be described thus: Inhibition of human HGK catalytic domain expressed in baculovirus assessed as substrate phosphorylation using fluorescence-labelled peptides as substrate at 0.06 uM after 90 mins by microfluidic peptide phosphorylation assay.
For assay [7], the target named is Tyrosine-protein kinase ABL1 (Homo sapiens) (UniProt P00519). The assay can be described thus: Inhibition of human full-length ABL expressed in baculovirus assessed as substrate phosphorylation using fluorescence-labelled peptides as substrate at 70 uM after 90 mins by microfluidic peptide phosphorylation assay.
Sequence of Tyrosine-protein kinase ABL1 (Homo sapiens) (P00519 whole entry): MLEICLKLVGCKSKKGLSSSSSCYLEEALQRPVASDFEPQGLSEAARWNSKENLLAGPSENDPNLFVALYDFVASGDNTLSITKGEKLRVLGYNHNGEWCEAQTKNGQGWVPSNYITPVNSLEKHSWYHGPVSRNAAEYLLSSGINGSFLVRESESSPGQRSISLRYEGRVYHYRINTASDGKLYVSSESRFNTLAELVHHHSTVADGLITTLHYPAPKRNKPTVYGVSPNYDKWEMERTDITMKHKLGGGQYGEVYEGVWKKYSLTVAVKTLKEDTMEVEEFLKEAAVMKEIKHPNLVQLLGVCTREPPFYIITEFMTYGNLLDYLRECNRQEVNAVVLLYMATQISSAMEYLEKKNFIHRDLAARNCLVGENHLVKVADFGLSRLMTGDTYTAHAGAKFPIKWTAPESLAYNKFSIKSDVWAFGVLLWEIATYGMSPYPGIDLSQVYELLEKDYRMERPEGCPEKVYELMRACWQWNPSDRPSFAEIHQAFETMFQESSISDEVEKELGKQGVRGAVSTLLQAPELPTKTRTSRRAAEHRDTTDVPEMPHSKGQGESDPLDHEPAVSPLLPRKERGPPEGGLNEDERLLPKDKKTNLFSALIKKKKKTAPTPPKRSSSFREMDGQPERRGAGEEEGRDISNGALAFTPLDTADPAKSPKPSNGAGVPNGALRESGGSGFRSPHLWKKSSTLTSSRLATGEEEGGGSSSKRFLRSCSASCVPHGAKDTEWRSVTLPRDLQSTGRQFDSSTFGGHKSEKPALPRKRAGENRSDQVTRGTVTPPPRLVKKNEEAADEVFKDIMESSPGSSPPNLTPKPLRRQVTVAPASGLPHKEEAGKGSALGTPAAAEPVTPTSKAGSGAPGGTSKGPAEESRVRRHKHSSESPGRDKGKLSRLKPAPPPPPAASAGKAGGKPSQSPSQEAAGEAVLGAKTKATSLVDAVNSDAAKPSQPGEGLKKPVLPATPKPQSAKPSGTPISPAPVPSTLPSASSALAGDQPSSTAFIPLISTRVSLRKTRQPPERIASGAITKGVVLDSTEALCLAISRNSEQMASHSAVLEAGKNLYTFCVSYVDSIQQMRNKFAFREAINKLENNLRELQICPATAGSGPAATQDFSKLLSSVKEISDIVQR
Assay [8] concerns the target T3, Inhibitor of nuclear factor kappa-B kinase subunit beta (Homo sapiens) (UniProt O14920).
T3 sequence (whole entry): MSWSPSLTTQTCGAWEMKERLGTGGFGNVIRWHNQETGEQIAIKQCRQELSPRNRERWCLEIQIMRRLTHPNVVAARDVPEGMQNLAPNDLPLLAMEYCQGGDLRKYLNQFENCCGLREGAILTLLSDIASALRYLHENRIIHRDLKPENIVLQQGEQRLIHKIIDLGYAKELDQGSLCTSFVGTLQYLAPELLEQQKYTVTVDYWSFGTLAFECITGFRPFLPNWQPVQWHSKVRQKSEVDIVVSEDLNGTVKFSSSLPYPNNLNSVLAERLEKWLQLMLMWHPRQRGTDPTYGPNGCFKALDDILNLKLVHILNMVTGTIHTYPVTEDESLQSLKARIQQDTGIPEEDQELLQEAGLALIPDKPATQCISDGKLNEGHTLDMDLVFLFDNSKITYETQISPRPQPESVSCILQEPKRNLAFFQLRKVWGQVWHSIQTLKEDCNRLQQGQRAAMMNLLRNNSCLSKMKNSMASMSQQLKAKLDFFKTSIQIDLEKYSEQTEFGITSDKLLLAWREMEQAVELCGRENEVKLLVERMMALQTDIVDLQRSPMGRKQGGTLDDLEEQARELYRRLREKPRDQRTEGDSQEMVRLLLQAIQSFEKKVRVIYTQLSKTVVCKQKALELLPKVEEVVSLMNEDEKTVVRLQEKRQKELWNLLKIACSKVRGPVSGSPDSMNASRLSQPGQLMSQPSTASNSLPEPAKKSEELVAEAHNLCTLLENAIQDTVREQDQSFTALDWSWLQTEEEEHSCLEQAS
The assay can be described thus: Inhibition of human full length IKK beta expressed in baculovirus assessed as substrate phosphorylation using fluorescence-labelled peptides as substrate at 420 uM after 90 mins by microfluidic peptide phosphorylation assay.

Sequence of Mitogen-activated protein kinase kinase kinase kinase 4 (Homo sapiens) (O95819 2-1239 limits assumed): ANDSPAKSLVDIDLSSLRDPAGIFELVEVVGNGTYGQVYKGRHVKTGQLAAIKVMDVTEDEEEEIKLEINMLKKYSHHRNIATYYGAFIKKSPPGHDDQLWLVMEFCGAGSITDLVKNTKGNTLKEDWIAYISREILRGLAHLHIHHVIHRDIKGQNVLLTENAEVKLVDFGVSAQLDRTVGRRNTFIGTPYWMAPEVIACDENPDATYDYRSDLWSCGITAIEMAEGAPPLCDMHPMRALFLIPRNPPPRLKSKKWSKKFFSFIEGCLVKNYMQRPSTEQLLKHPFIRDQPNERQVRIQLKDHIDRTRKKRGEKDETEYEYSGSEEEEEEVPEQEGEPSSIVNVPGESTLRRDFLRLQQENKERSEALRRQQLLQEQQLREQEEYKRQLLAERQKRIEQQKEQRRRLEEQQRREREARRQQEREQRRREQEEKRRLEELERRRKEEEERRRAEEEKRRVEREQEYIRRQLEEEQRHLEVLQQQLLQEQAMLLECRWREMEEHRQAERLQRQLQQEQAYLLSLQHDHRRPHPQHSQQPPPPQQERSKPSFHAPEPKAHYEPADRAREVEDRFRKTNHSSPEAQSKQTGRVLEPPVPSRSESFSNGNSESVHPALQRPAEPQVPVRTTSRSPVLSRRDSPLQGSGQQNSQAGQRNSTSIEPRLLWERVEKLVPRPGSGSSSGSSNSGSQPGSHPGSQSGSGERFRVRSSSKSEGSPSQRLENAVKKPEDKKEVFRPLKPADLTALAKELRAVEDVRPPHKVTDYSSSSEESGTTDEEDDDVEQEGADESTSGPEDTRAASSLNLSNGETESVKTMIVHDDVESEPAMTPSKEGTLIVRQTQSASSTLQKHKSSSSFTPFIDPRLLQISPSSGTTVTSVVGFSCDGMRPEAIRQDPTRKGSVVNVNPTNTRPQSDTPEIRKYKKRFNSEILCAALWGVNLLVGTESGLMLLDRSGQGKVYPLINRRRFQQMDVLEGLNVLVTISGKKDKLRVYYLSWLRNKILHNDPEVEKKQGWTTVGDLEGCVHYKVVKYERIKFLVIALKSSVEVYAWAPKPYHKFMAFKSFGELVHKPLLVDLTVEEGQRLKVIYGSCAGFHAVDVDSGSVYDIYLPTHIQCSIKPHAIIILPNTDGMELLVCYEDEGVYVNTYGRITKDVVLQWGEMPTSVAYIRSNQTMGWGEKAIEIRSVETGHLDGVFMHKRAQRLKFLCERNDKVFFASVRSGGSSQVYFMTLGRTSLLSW

One may read the inhibition as how much of the control response was suppressed. In the case of `NC1CCN(c2ncnc3[nH]ccc23)CC1`, the results for the inhibition in assay [1], in assay [2] and in assay [3] were 64.5%, 0% and 44%, respectively.

As for `C[C@H](CN(C)C)Oc1nc(Nc2cc3cccc(Cl)c3cn2)cnc1C#N`, in assay [4], the inhibition came to 0%.

For `NC1(Cc2ccc(Cl)cc2)CCN(c2ncnc3[nH]ccc23)CC1`, the values for the inhibition in assay [5] and in assay [6] were 0% and 1%, respectively.

For `CNCc1ccc(-c2ncnc3[nH]cnc23)cc1`, in assay [7], the inhibition amounted to 47.5%.

`c1nc(N2CCOCC2)c2nc[nH]c2n1`: the inhibition in assay [8] is 87%.
